Measurements taken from PubChem BioAssay AID1626 (SRMLSC, 2009).

Test system: M. tuberculosis H37Rv growth inhibition
Assay: M. tuberculosis H37Rv growth inhibitors, H37Rv strain (AID 1626)
Conditions: for IC90: measured here: IC90 against H37Rv; for CC50: measured here: Vero cell cytotoxicity

In the case of `CC(=O)Oc1c(-c2ccco2)oc2ccccc2c1=O`, the IC50 is reported as 51.4 µM and the IC90 is reported as over 100 µM.
`COc1ccc(N/C=C2\CCOC2=O)cc1` was tested, and the IC90 was over 100 µM.
For `CCOC(=O)c1c(NC(=O)C2COc3ccccc3O2)sc2c1CC(C)(C)NC2(C)C` (stereo not given), the IC50 was 12.6 µM and the IC90 was 13.7 µM.
For `Oc1ccc(COCc2ccccc2)c2cccnc12`, the IC50 was 3 µM, the IC90 was 3.31 µM and the CC50 was 1.6 µM.
With `COc1ccc(NC(=O)COc2ccc3c(c2)CCC3)cc1` the IC50 was 16.4 µM and the IC90 was over 100 µM.
`CSc1ccccc1NC(=O)c1cc(C2CC2)on1` gave an IC50 of 23.6 µM and an IC90 of 26.7 µM.
For `OC1(C#Cc2c(-c3ccsc3)oc3ccc(N4CCOCC4)cc23)CCCCC1`, the IC50 was 15 µM, the IC90 was over 100 µM and the CC50 was over 40 µM.
Work on `Cc1cc2ccccc2n1CCNC(=O)COc1ccc2ccccc2c1` yielded an IC50 of 52.5 µM and an IC90 of over 100 µM.
`CC1CC1C(=O)Nc1ccc(-c2ccccc2)cc1` (stereo not given) showed an IC50 of 0.31 µM and an IC90 of over 100 µM.
In the case of `CCNc1nc(NCC)nc(-n2nc(C)cc2C)n1`, the IC50 is reported as 5.04 µM and the IC90 is reported as 18.4 µM.
Molecule `COc1ccc(OCCn2c(NC(=O)c3ccco3)nc3ccccc32)cc1` has an IC90 of over 100 µM and a CC50 of 33.2 µM.
Work on `Cc1ccc(OCCC(=O)Nc2ccc(C)c(F)c2)cc1` yielded an IC90 of over 100 µM.
`CCc1cccc2c1NC(=O)C21N2CCCC2C(C(=O)c2ccc3ccccc3c2)C12C(=O)Nc1ccccc12` (stereo not given) gave an IC50 of 23.8 µM, an IC90 of over 100 µM and a CC50 of over 40 µM.
Molecule `Cc1ccc2nc(SCC(=O)Nc3ccc4c(c3)CCC4)[nH]c2c1` has an IC90 of over 100 µM.
`Oc1ccc2ccccc2c1CNc1cnc2ccccc2c1` gave an IC50 of 1.42 µM and an IC90 of over 100 µM.
With `Cc1ccc(-n2nnnc2Sc2nc([N+](=O)[O-])nn2C)cc1C` the IC50 was 7.23 µM, the IC90 was 13.2 µM and the CC50 was 37.6 µM.
`CCCCOC(=O)c1ccc(NC(=O)C(=O)NCCN(C)C)cc1` was tested, and the IC50 was 14.9 µM and the IC90 was over 100 µM.
With `CCOc1ccc(-n2cc(-c3ccccc3)c3c(SC(C)C(=O)OC)ncnc32)cc1` (stereo not given) the IC50 was 6.4 µM and the IC90 was over 100 µM.
`Cc1sc(-n2c(C)cc(/C=N/n3cnnc3)c2C)c(C#N)c1C` was tested, and the CC50 was over 40 µM.
In the case of `O=C(Nc1ccc(-n2nncc2-c2ccco2)cc1)c1cc2ccccc2oc1=O`, the IC50 is reported as 1.96 µM, the IC90 is reported as 6.68 µM and the CC50 is reported as 19.7 µM.
In the case of `Cc1ccc(-c2ccc(/C=N/c3ncn[nH]3)o2)cc1Cl`, the IC50 is reported as 30.2 µM and the IC90 is reported as over 100 µM.
Work on `Cn1c(N=Nc2ccccc2)nc2ccccc21` yielded an IC50 of 1.04 µM, an IC90 of 1.89 µM and a CC50 of 16.1 µM.
Molecule `CCn1cc(C(=O)NCc2cccc(F)c2)c(=O)c2cc(F)c(N3CCN(C(=O)c4ccco4)CC3)cc21` has an IC50 of 2.69 µM, an IC90 of 6.52 µM and a CC50 of 27 µM.
With `CC(C)OC(=O)CSc1nnc(-c2ccc(Cl)cc2Cl)o1` the IC50 was under 0.195 µM and the IC90 was 9.2 µM.
Molecule `COc1ccc(-c2cc(C(F)(F)F)n3ncc(C(=O)N4CCCCC4c4cccnc4)c3n2)cc1` (stereo not given) has an IC90 of over 100 µM.
Work on `CCSc1nnc(NC(=O)c2ccccn2)s1` yielded an IC50 of 0.315 µM, an IC90 of 0.466 µM and a CC50 of 8.14 µM.
`Cc1cc(C)cc(OCc2nnc(SCC(=O)OC(C)C)o2)c1` gave an IC90 of over 100 µM.
`Cc1ccc(C(=O)Oc2cccc(NC(=O)c3ccccc3)c2)cc1C` showed an IC50 of 7.76 µM and an IC90 of 12.9 µM.
`O=C(/C=C/c1cccc([N+](=O)[O-])c1)c1cccs1` showed an IC50 of 11.1 µM and an IC90 of 12.8 µM.
`CCOc1ccc(Nc2nc(N)nc(CCl)n2)cc1` was tested, and the IC50 was 23.2 µM, the IC90 was over 100 µM and the CC50 was 0.194 µM.
In the case of `O=[N+]([O-])c1cc2cccnc2c2ncccc12`, the IC50 is reported as 1.4 µM, the IC90 is reported as 1.49 µM and the CC50 is reported as 33 µM.
Work on `CCCn1c(=N)c(C(=O)NCc2ccc3c(c2)OCO3)cc2c(=O)n3cccc(C)c3nc21` yielded an IC50 of 19.6 µM, an IC90 of 31.7 µM and a CC50 of over 40 µM.
`Cc1ccc(C(=O)N/C(=C\c2ccc(-c3ccc(Br)cc3)o2)C(=O)NCCCN(C)C)cc1` was tested, and the IC50 was 15.5 µM, the IC90 was 18.2 µM and the CC50 was 6.45 µM.
In the case of `Cc1sc2cc3c(c(C(=O)c4ccccc4)[n+]2c1C)-c1cccc2cccc-3c12`, the IC50 is reported as 1.52 µM, the IC90 is reported as 2.33 µM and the CC50 is reported as over 40 µM.
`CCOC(=O)c1sc(NC(=O)CSc2ncn[nH]2)c(C#N)c1C` gave a CC50 of over 40 µM.
Molecule `O=C(O)c1ccc(Nc2nc(-c3cc4ccccc4oc3=O)cs2)cc1O` has an IC50 of 20.1 µM and an IC90 of over 100 µM.
In the case of `CCOc1ccc2nc(NC(=O)c3cnc(C)cn3)sc2c1`, the IC50 is reported as 4.76 µM, the IC90 is reported as over 100 µM and the CC50 is reported as 40 µM.
For `Cc1ccc(C(=O)CC(=O)COc2ccc(Cl)cc2)cc1`, the IC50 was 6.66 µM, the IC90 was over 100 µM and the CC50 was over 40 µM.
With `Nc1nc(Cl)cc(N2CCC(c3cc(-c4ccc(Cl)cc4)n[nH]3)CC2)n1` the IC50 was 77.9 µM, the IC90 was over 100 µM and the CC50 was 13.6 µM.
`COc1cnc(-c2ccccn2)nc1Sc1ccc(C)cc1` was tested, and the IC50 was under 0.195 µM, the IC90 was 2.92 µM and the CC50 was 4.24 µM.
With `CCN(Cc1nc2ccccc2c(=O)[nH]1)Cc1nc2ccsc2c(=O)[nH]1` the IC50 was 15.8 µM, the IC90 was over 100 µM and the CC50 was over 40 µM.
`Cc1ccc(CNC(=O)c2ccc([N+](=O)[O-])o2)cc1` showed an IC50 of under 0.391 µM, an IC90 of 2.89 µM and a CC50 of 8.28 µM.
`CCOc1ccc(NC(=O)N(C2CCCCCC2)C2CCN(C(C)=O)CC2)cc1` was tested, and the IC90 was over 100 µM.
For `O=C(NCc1ccc(F)cc1)C(=O)Nc1nc(C23CC4CC(CC(C4)C2)C3)cs1`, the CC50 was 21.4 µM.
Molecule `O=C(CSc1ccccn1)Nc1ccc2c(c1)oc1ccccc12` has an IC50 of under 0.195 µM and an IC90 of over 100 µM.
